Values of other authors, collected in patent US6001802A, “Platelet-derived growth factor analogues” (Trigen Limited, priority 1993, dated 1999).
Where no end group is shown, it is not given here.

What was measured:
PDGF β-receptors = PDGF β-receptors (Homo sapiens, UniProt P09619); conditions: reference [6]
[1] = system: smooth muscle cells of injured arteries; conditions: administration of PDGF, rat angioplasty model [19]

Chain of PDGF β-receptors (P09619 33-1106): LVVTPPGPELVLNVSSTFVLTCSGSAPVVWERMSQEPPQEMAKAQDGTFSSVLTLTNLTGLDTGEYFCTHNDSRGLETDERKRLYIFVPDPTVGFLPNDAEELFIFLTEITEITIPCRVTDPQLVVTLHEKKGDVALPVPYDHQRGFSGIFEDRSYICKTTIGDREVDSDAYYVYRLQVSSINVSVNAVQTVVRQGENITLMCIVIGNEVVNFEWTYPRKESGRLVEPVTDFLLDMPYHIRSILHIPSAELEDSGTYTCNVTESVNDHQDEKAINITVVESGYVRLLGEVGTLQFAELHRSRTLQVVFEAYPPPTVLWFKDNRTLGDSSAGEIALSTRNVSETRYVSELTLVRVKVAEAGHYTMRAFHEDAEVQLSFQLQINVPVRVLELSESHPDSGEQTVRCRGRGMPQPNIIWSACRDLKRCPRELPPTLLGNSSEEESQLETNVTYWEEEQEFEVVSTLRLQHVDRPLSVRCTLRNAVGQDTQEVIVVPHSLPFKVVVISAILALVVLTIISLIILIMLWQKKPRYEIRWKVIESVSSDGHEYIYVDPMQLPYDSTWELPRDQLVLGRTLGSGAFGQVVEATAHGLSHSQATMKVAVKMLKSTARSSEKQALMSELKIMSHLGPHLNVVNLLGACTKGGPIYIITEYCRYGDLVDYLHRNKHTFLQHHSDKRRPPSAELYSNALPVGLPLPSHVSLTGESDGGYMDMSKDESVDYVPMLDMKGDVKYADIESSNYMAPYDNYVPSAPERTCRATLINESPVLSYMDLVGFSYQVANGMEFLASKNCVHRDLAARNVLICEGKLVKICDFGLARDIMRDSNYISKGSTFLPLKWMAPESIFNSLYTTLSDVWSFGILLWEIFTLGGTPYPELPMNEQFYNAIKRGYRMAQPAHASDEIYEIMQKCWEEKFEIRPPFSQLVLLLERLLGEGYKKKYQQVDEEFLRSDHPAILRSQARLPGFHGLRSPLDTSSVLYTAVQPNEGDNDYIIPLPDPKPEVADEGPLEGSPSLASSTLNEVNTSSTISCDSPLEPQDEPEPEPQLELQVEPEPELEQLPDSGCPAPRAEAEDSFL

Substance | antagonist for PDGF (PDGF β-receptors) | SMC migration from the media to the intima [1] [fold] | SMC proliferation in the media [1]
ANFLVW - - - EIVRKKP (also: N-terminal ANFLVW segment joined by an unspecified link (- - -)) [literature peptide of PDGF-B chain residues 35-40 and 78-83 [6]] | effective as an antagonist for PDGF | – | –
PDGF: 28-31 KD dimeric, highly basic glycoprotein, potent mitogen for connective tissue cells | – | 20 | 2-3 fold
